# Measured values reported in patent publication US20200216906A1, “METHODS AND COMPOSITIONS RELATING TO THE DIAGNOSIS AND TREATMENT OF CANCER” (PRESIDENT AND FELLOWS OF HARVARD COLLEGE, priority 2015, published 2020).
# Where a name gives a salt, the structure may show the parent alone. Read-outs that look alike come from different tables or passages of the source.
# Assays:
# [1] = system: Miapaca2-GFP xenografts; assay: Mouse xenograft, Miapaca2-GFP; assay type: in vivo; conditions: i.p., alternate days for two weeks
# Protocol: To assess the gemcitabine response to Hippo pathway inactivation in tumors a mouse xenograft model of pancreatic carcinoma cells and patient-derived xenograft (PDX) models from a variety of solid tumors including human cancers from non-small cell lung, esophagus, breast, mesothelium, ovary, colon, head and neck, sarcoma, and cholangiocarcinoma were used (FIG. 30). In mouse xenograft studies, two human pancreatic cancer cell lines (Miapac2 and Panc02.13) expressing GFP or YAPS6A were injected into athymic mice. Both parental or GFP expressing cells grew rapidly, producing palpable tumors in 5-10 days. When the tumors were ˜200 mm^3 (as measured using a caliper), mice were randomized into treatment and control groups. The […] received i.p. saline injections on alternate days for two weeks, and the latter received gemcitabine (20 mg/kg in Miapaca2-YAPS6A and 50 mg/Kg in Panc02.13-YAPS6A cohorts).
# Tumorigenicity in Nude Mice. All in vivo experiments were performed using 6-week-old to 8-week-old athymic nude mice. Mice were maintained in laminar flow rooms with constant temperature and humidity. Miapaca2 or Panc02.13 cells were inoculated subcutaneously (s.c.) into each flank of the mice. […] Tumor volumes (V) were calculated using the formula: V=AB2/2 (A, axial diameter; B, rotational diameter). […]
# [2] = system: cancer cell lines harboring Hippo pathway genetic alterations; assay: 3D spheroid growth assay, cell lines with Hippo pathway alterations; assay type: cell-based; conditions: cell lines from five diverse cancer types
# Description: Genetic defects that inhibit the Hippo pathway can induce tumors in model organisms. Such mutations occur in a broad range of human carcinomas, including lung, mesothelioma, colorectal, ovarian and liver cancers (Harvey et al., 2013) (Table S3). Mutations in NF2 and LATS2 are found in ˜30% of mesotheliomas and mutations in STK11 are found in 18% of lung cancers (Table S3). Previous studies have shown that aberrations in LATS2 and NF2 inactivate the Hippo pathway and overcome crowding-mediated YAP inhibition (Murakami et al., 2011). Despite the oncogenic effect of Hippo pathway mutations, the above studies would predict that the same inactivating mutations in the Hippo pathway genes (NF2, LATS2, STK11) could have an important effect, which can be exploited in chemotherapy: they might be hypersensitive to gemcitabine even in highly crowded conditions and increase the effectiveness of treatment. […] Furthermore, previous studies have shown that mutations in STK11 (LKB1) in lung cancer cell lines confer sensitivity to gemcitabine while ectopic expression of STK11 causes resistance (Xia et al., 2014; Yang, 2014). STK11 has been identified as an upstream kinase that negatively regulates YAP activity (Mohseni et al., 2014). […] Genetic aberrations in the Hippo pathway can be predictive biomarkers for response to gemcitabine.
# [3] = system: Panc02.13 cells expressing the YAPS6A mutant; assay: 3D spheroid growth assay, Panc02.13 cells expressing YAPS6A; assay type: cell-based, human; conditions: YAP activity increased
# [4] = system: pancreatic cancer cell lines; assay: Kinetic cell growth assay, panel of pancreatic cancer cell lines; assay type: cell-based, human; conditions: for IC50: PDAC cell lines
# In short: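 Pancreatic cancer cells seeded at 2-4×10^3 (low) or 15-20×10^3 (high density) per well; compounds added at several doses 24 h after plating. Confluence imaged live (Incucyte) hourly for 48-144 h or until DMSO controls reached 100% confluence.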
compound,measurement,setting,value
"Nc1ccn([C@@H]2O[C@H](CO)[C@@H](O)C2(F)F)c(=O)n1 [Gemcitabine, Gemcitabine hydrochloride]",Growth of xenografts,[1],no affect
same,EC50,[2],< 1000 nM
same,Efficacy in inhibiting cell growth when the Hippo pathway was inhibited,[3],increased efficacy in inhibiting cell growth
same,IC50,"[4]; Homo sapiens, Pancreatic cancer cell, dense culture, read-out: IC50, resistant in dense culture",> 1000 nM
same,IC50,"[4]; Homo sapiens, Pancreatic cancer cell, sparse culture, read-out: IC50, sensitive in sparse culture",< 100 nM
same,EC50,"[4]; Homo sapiens, Pancreatic cancer cell, low crowding conditions (10-25% confluence), all cell lines tested, read-out: EC50 on cell growth",< 200 nM
same,Dependence of cellular response on cell crowding,"[4]; seven PDAC cell lines, threshold >100 fold difference in EC50",dependent on cell crowding
same,Density dependence of efficacy,"[4]; seven pancreatic cancer cell lines, sparse and dense conditions",density-dependent
